Experimental data published in patent publication US20230085307A1, “PYRIDAZINONE COMPOUND AND HERBICIDE” (NISSAN CHEMICAL CORPORATION, priority 2019, published 2023).

Legend:
[1] = system: false cleavers; assay: Test Example 4: herbicidal effect by soil treatment (Table 19, symbol Q); assay type: in vivo, false cleavers (Galium spurium); details: amount of applied herbicide 320 g/ha
How it was run: (§1)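 Applied as a water-diluted emulsion, the compound was sprayed onto soil covering newly sown seeds. Evaluation came three weeks after application, in a greenhouse held at 25° C. to 30° C.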

[2] = system: Chinese sprangletop; assay: Test Example 3: herbicidal effect by foliage application, Wagner pot (Table 18, symbol D); assay type: in vivo, chinese sprangletop (Leptochloa chinensis); details: 320 g/ha
How it was run: (§2)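 Plants were sown in alluvial soil held under 0.1–0.5 cm standing water and grown 14 days in a greenhouse at 25–30 °C. An emulsifiable formulation, water-diluted to the set dose, was then sprayed onto the foliage, and effects were scored three weeks later using previously defined criteria.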

[3] = system: wild oat; assay: Test Example 4: herbicidal effect by soil treatment (Table 19, symbol I); assay type: in vivo, wild oat (Avena fatua); details: amount of applied herbicide 320 g/ha
How it was run: as §1

[4] = system: wild oat; assay: Test Example 5: herbicidal effect by foliage application, plastic box (Table 20, symbol I); assay type: in vivo, wild oat (Avena fatua); details: foliage application, 320 g/ha, evaluated three weeks after application
How it was run: (§3)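 Sow seeds spot-wise in sterilized diluvial soil; cover with ~1.5 cm soil. Grow 14 days in greenhouse, 25° C. to 30° C. Spray foliage with emulsion diluted to predetermined amount. Rate effect after 3 weeks.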

[5] = system: Italian ryegrass; assay: Test Example 5: herbicidal effect by foliage application, plastic box (Table 20, symbol K); assay type: in vivo, Italian ryegrass (Lolium multiflorum); details: foliage application, 320 g/ha, evaluated three weeks after application
How it was run: as §3

[6] = system: chickweed; assay: Test Example 5: herbicidal effect by foliage application, plastic box (Table 20, symbol P); assay type: in vivo, common chickweed (Stellaria media); details: foliage application, 320 g/ha, evaluated three weeks after application
How it was run: as §3

[7] = system: persian speedwell; assay: Test Example 4: herbicidal effect by soil treatment (Table 19, symbol R); assay type: in vivo, Persian speedwell (Veronica persica); details: amount of applied herbicide 320 g/ha
How it was run: as §1

[8] = system: blackgrass; assay: Test Example 4: herbicidal effect by soil treatment (Table 19, symbol J); assay type: in vivo, blackgrass (Alopecurus myosuroides); details: amount of applied herbicide 320 g/ha
How it was run: as §1

[9] = system: false cleavers; assay: Test Example 5: herbicidal effect by foliage application, plastic box (Table 20, symbol Q); assay type: in vivo, false cleavers (Galium spurium); details: foliage application, 320 g/ha, evaluated three weeks after application
How it was run: as §3

[10] = system: windgrass; assay: Test Example 5: herbicidal effect by foliage application, plastic box (Table 20, symbol L); assay type: in vivo, windgrass (Apera spica-venti); details: foliage application, 320 g/ha, evaluated three weeks after application
How it was run: as §3

[11] = system: redroot pigweed; assay: Test Example 4: herbicidal effect by soil treatment (Table 19, symbol N); assay type: in vivo, redroot pigweed (Amaranthus retroflexus); details: amount of applied herbicide 320 g/ha
How it was run: as §1

[12] = system: green foxtail; assay: Test Example 4: herbicidal effect by soil treatment (Table 19, symbol G); assay type: in vivo, green foxtail (Setaria viridis); details: amount of applied herbicide 320 g/ha
How it was run: as §1

[13] = system: barnyard grass; assay: Test Example 5: herbicidal effect by foliage application, plastic box (Table 20, symbol H); assay type: in vivo, barnyard grass (Echinochloa crus-galli); details: foliage application, 320 g/ha, evaluated three weeks after application
How it was run: as §3

[14] = system: chickweed; assay: Test Example 4: herbicidal effect by soil treatment (Table 19, symbol P); assay type: in vivo, common chickweed (Stellaria media); details: amount of applied herbicide 320 g/ha
How it was run: as §1

[15] = system: green foxtail; assay: Test Example 5: herbicidal effect by foliage application, plastic box (Table 20, symbol G); assay type: in vivo, green foxtail (Setaria viridis); details: foliage application, 320 g/ha, evaluated three weeks after application
How it was run: as §3

[16] = system: barnyard grass; assay: Test Example 3: herbicidal effect by foliage application, Wagner pot (Table 18, symbol H); assay type: in vivo, barnyard grass (Echinochloa crus-galli); details: 320 g/ha
How it was run: as §2

[17] = system: Japanese bulrush; assay: Test Example 2: herbicidal activity, application during weed generation under submerged conditions (Table 17, symbol B); assay type: in vivo, Japanese bulrush (Schoenoplectus juncoides); details: AAH 320 g/ha; application during weed generation, submerged conditions
How it was run: (§4)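 Steps: fill Wagner pots with alluvial soil; add water to give 4 cm depth; sow the species mixed; grow under glass at 25–30° C.; at 1–2 leaves apply water-diluted emulsion formulation to the water surface at a fixed herbicide amount; score after 3 weeks.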

[18] = system: rice flat sedge; assay: Test Example 3: herbicidal effect by foliage application, Wagner pot (Table 18, symbol E); assay type: in vivo, rice flat sedge (Cyperus iria); details: 320 g/ha
How it was run: as §2

[19] = system: persian speedwell; assay: Test Example 5: herbicidal effect by foliage application, plastic box (Table 20, symbol R); assay type: in vivo, Persian speedwell (Veronica persica); details: foliage application, 320 g/ha, evaluated three weeks after application
How it was run: as §3

[20] = system: oval-leafed pondweed; assay: Test Example 2: herbicidal activity, application during weed generation under submerged conditions (Table 17, symbol C); assay type: in vivo, oval-leafed pondweed (Monochoria vaginalis); details: AAH 320 g/ha; application during weed generation, submerged conditions
How it was run: as §4

[21] = system: Italian ryegrass; assay: Test Example 4: herbicidal effect by soil treatment (Table 19, symbol K); assay type: in vivo, Italian ryegrass (Lolium multiflorum); details: amount of applied herbicide 320 g/ha
How it was run: as §1

[22] = system: velvetleaf; assay: Test Example 5: herbicidal effect by foliage application, plastic box (Table 20, symbol M); assay type: in vivo, velvetleaf (Abutilon theophrasti); details: foliage application, 320 g/ha, evaluated three weeks after application
How it was run: as §3

[23] = system: lambsquarters; assay: Test Example 5: herbicidal effect by foliage application, plastic box (Table 20, symbol O); assay type: in vivo, lambsquarters (Chenopodium album); details: foliage application, 320 g/ha, evaluated three weeks after application
How it was run: as §3

[24] = system: lambsquarters; assay: Test Example 4: herbicidal effect by soil treatment (Table 19, symbol O); assay type: in vivo, lambsquarters (Chenopodium album); details: amount of applied herbicide 320 g/ha
How it was run: as §1

[25] = system: late watergrass; assay: Test Example 2: herbicidal activity, application during weed generation under submerged conditions (Table 17, symbol A); assay type: in vivo, late watergrass (Echinochloa oryzicola); details: AAH 320 g/ha; application during weed generation, submerged conditions
How it was run: as §4

[26] = system: southern crabgrass; assay: Test Example 4: herbicidal effect by soil treatment (Table 19, symbol F); assay type: in vivo, southern crabgrass (Digitaria ciliaris); details: amount of applied herbicide 320 g/ha
How it was run: as §1

[27] = system: southern crabgrass; assay: Test Example 5: herbicidal effect by foliage application, plastic box (Table 20, symbol F); assay type: in vivo, southern crabgrass (Digitaria ciliaris); details: foliage application, 320 g/ha, evaluated three weeks after application
How it was run: as §3

[28] = system: blackgrass; assay: Test Example 5: herbicidal effect by foliage application, plastic box (Table 20, symbol J); assay type: in vivo, blackgrass (Alopecurus myosuroides); details: foliage application, 320 g/ha, evaluated three weeks after application
How it was run: as §3

[29] = system: barnyard grass; assay: Test Example 4: herbicidal effect by soil treatment (Table 19, symbol H); assay type: in vivo, barnyard grass (Echinochloa crus-galli); details: amount of applied herbicide 320 g/ha
How it was run: as §1

[30] = system: redroot pigweed; assay: Test Example 5: herbicidal effect by foliage application, plastic box (Table 20, symbol N); assay type: in vivo, redroot pigweed (Amaranthus retroflexus); details: foliage application, 320 g/ha, evaluated three weeks after application
How it was run: as §3

[31] = system: velvetleaf; assay: Test Example 4: herbicidal effect by soil treatment (Table 19, symbol M); assay type: in vivo, velvetleaf (Abutilon theophrasti); details: amount of applied herbicide 320 g/ha
How it was run: as §1

[32] = system: windgrass; assay: Test Example 4: herbicidal effect by soil treatment (Table 19, symbol L); assay type: in vivo, windgrass (Apera spica-venti); details: amount of applied herbicide 320 g/ha
How it was run: as §1

CCCC(=O)Oc1c(C)nn(C)c(=O)c1-c1c(-c2ccc(OC(C)C)cc2)sc2ccc(Cl)cc12 [2-108]
Q: false cleavers, herbicidal effect rating [1]: 0 (Herbicidal rate of 5% or less (almost no effect)) | herbicidal effect on D (Chinese sprangletop), rating 0-5 [2]: 0 (Herbicidal rate of 5% or less (almost no effect)) | I: wild oat, herbicidal effect rating [3]: 0 (Herbicidal rate of 5% or less (almost no effect)) | herbicidal effect on I: wild oat [4]: 0 (Herbicidal rate of 5% or less (almost no effect)) | herbicidal effect on K: Italian ryegrass [5]: 0 (Herbicidal rate of 5% or less (almost no effect)) | herbicidal effect on P: chickweed [6]: 4 (Herbicidal rate of 70% or more and less than 90%) | R: persian speedwell, herbicidal effect rating [7]: 4 (Herbicidal rate of 70% or more and less than 90%) | J: blackgrass, herbicidal effect rating [8]: 0 (Herbicidal rate of 5% or less (almost no effect)) | herbicidal effect on Q: false cleavers [9]: 0 (Herbicidal rate of 5% or less (almost no effect)) | herbicidal effect on L: windgrass [10]: 0 (Herbicidal rate of 5% or less (almost no effect)) | N: redroot pigweed, herbicidal effect rating [11]: 0 (Herbicidal rate of 5% or less (almost no effect)) | G: green foxtail, herbicidal effect rating [12]: 0 (Herbicidal rate of 5% or less (almost no effect)) | herbicidal effect on H: barnyard grass [13]: 0 (Herbicidal rate of 5% or less (almost no effect)) | P: chickweed, herbicidal effect rating [14]: 0 (Herbicidal rate of 5% or less (almost no effect)) | herbicidal effect on G: green foxtail [15]: 0 (Herbicidal rate of 5% or less (almost no effect)) | herbicidal effect on H (barnyard grass), rating 0-5 [16]: 4 (Herbicidal rate of 70% or more and less than 90%) | herbicidal effect rating, B: Japanese bulrush [17]: 0 (Herbicidal rate of 5% or less (almost no effect)) | herbicidal effect on E (rice flat sedge), rating 0-5 [18]: 2 (Herbicidal rate of 20% or more and less than 40%) | herbicidal effect on R: persian speedwell [19]: 5 (Herbicidal rate of 90% or more (almost completely withered)) | herbicidal effect rating, C: oval-leafed pondweed [20]: 0 (Herbicidal rate of 5% or less (almost no effect)) | K: Italian ryegrass, herbicidal effect rating [21]: 0 (Herbicidal rate of 5% or less (almost no effect)) | herbicidal effect on M: velvetleaf [22]: 2 (Herbicidal rate of 20% or more and less than 40%) | herbicidal effect on O: lambsquarters [23]: 1 (Herbicidal rate of 5% or more and less than 20%) | O: lambsquarters, herbicidal effect rating [24]: 0 (Herbicidal rate of 5% or less (almost no effect)) | herbicidal effect rating, A: late watergrass [25]: 3 (Herbicidal rate of 40% or more and less than 70%) | F: southern crabgrass, herbicidal effect rating [26]: 0 (Herbicidal rate of 5% or less (almost no effect)) | herbicidal effect on F: southern crabgrass [27]: 0 (Herbicidal rate of 5% or less (almost no effect)) | herbicidal effect on J: blackgrass [28]: 0 (Herbicidal rate of 5% or less (almost no effect)) | H: barnyard grass, herbicidal effect rating [29]: 0 (Herbicidal rate of 5% or less (almost no effect)) | herbicidal effect on N: redroot pigweed [30]: 3 (Herbicidal rate of 40% or more and less than 70%) | M: velvetleaf, herbicidal effect rating [31]: 0 (Herbicidal rate of 5% or less (almost no effect)) | L: windgrass, herbicidal effect rating [32]: 0 (Herbicidal rate of 5% or less (almost no effect))
